Results taken from patent publication US6559180B2, “Nitroglycerin-menthol potentiation for treatment of angina” (priority 2001, dated 2003).
Values joined by “and” are separate entries in the source; they are usually repeats but may differ in a detail not shown here. Equal values may be shown once.

Assays:
[1] = First study: sublingual pump spray in angina patients intolerant to standard 400 mcg NTG spray (intolerance and anginal pain relief); type: in vivo; conditions: single 200 mcg NTG spray dosage sublingually, Nitrolingual solution diluted fifty percent with placebo solution; 21 patients
Protocol: The first study identifies 21 patients experiencing intolerance to a standard “Nitrolingual”® NTG 400 mcg spray dosage delivered sublingually.
The “Nitrolingual”® solution described above was diluted fifty percent with a pharmacologically neutral solution placebo obtained from the same manufacturer, forming a combination solution. […] Each of the patients was then provided with a pump spray containing the combination solution which would limit each single spray dosage to 200 mcg NTG.
Next, isovolumic amounts of “Nitrolingual”® Pumpspray solution and 1% Menthol solution were mixed and the combination solution was provided to patients as a pump spray.

[2] = Second study: exercise stress tests in patients with reproducible exertional angina; type: in vivo
From the text: The second study pertained to five patients that experienced reproducible exertional angina. The study comprised administering exercise stress tests for each patient on three consecutive days. […]
For each patient, the stress test was stopped with the onset of angina. The objective evidence of ischemia was indicated by the degree of S-T segment depression and presence of segmental wall abnormalities documented by echocardiographic study performed immediately after the exercise stress test.
All tests monitored angina with exercise, exercise tolerance, and the degree of S-T segment depression on the ECG, when: 1) no medication was administered (Table 1); […]); and, 3) a solution containing isovolumic amounts of NTG and Menthol […]

SMILES: O=[N+]([O-])OCC(CO[N+](=O)[O-])O[N+](=O)[O-] [NTG, Nitroglycerin]
- patients that did not experience intolerance [1]: 90%
- patients that received satisfactory relief from anginal pain within two minutes [1]: 19%
- Heart Rate at Peak ([2]; 400 mg NTG administered prior to exercise, one line per patient (1-5)): 120 and 128 and 140 and 112 and 130
- Duration of Exercise ([2]; 400 mg NTG administered prior to exercise, test stopped at onset of angina, one line per patient (1-5)): 5 min and 6 min and 6.5 min and 4.5 min and 7.5 min
- side effects observed ([2]; 400 mcg NTG by itself or 200 mcg NTG in combination with Menthol, before exercise): No side effects were observed
